Reference: PubChem BioAssay AID248 (DTP/NCI, 2004)
Toxic doses and inconclusive results are not listed. Rule as the data show it: active = T/C of 150% or more; inactive = T/C below 125%.

Test system: L1210 leukemia ip in BDF1 mice, survival T/C
Experiment: NCI In Vivo Anticancer Drug Screen. Data for tumor model L1210 Leukemia (intraperitoneal) in B6D2F1 (BDF1) mice
Settings: endpoint: mean survival time, higher = longer survival
Method in brief: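 Value reflects the ratio of survival in compound-treated mice to survival in vehicle-treated controls, with both groups carrying the same transplanted tumor.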

[1] = dose: 100.0 mg/kg/injection, schedule: Q04DX003 (ip), vehicle: saline
[2] = dose: 200.0 mg/kg/injection, schedule: Q04DX003 (ip), vehicle: saline
[3] = dose: 400.0 mg/kg/injection, schedule: Q04DX003 (ip), vehicle: saline

Measured: T/C

O=C(c1ccccc1)C(Cl)Cl
inactive: [1] 106 % of control | [2] 96 % of control | [3] 98 % of control

O=C1CC(N2C(=O)C3CCCCC3C2=O)C(=O)N1 (configuration not stated)
inactive: [1] 97 % of control | [2] 101 % of control | [3] 97 % of control

CC(C)(C)C1CCC(C(N)=O)CC1 (configuration not stated)
inactive: dose: 100.0 mg/kg/injection, schedule: Q04DX002 (ip), vehicle: Klucel (hydroxypropylcellulose) (HPC) 103 % of control | dose: 200.0 mg/kg/injection, schedule: Q04DX002 (ip), vehicle: Klucel (hydroxypropylcellulose) (HPC) 107 % of control | dose: 400.0 mg/kg/injection, schedule: Q04DX002 (ip), vehicle: Klucel (hydroxypropylcellulose) (HPC) 103 % of control

CC1SC(=S)N(c2ccc(Cl)cc2)C1=O (configuration not stated)
inactive: dose: 100.0 mg/kg/injection, schedule: Q01DX009 (ip), vehicle: Klucel (hydroxypropylcellulose) (HPC) 115 % of control | dose: 100.0 mg/kg/injection, schedule: Q04DX003 (ip), vehicle: Klucel (hydroxypropylcellulose) (HPC) 98 % of control | dose: 200.0 mg/kg/injection, schedule: Q01DX009 (ip), vehicle: Klucel (hydroxypropylcellulose) (HPC) 110 % of control | dose: 200.0 mg/kg/injection, schedule: Q04DX003 (ip), vehicle: Klucel (hydroxypropylcellulose) (HPC) 106 % of control

CC1=CCCC(C)C12CCC(C(C)(C)O)C2 (configuration not stated)
inactive: dose: 50.0 mg/kg/injection, schedule: Q01DX009 (ip), vehicle: other 104 % of control | dose: 100.0 mg/kg/injection, schedule: Q01DX009 (ip), vehicle: other 98 % of control | dose: 100.0 mg/kg/injection, schedule: Q04DX003 (ip), vehicle: saline sonified 103 % of control | dose: 200.0 mg/kg/injection, schedule: Q01DX009 (ip), vehicle: other 100 % of control | dose: 200.0 mg/kg/injection, schedule: Q04DX003 (ip), vehicle: saline sonified 107 % of control

CSc1cc(C)c(OC(=O)Nc2ccccc2F)c(CO)c1
inactive: dose: 100.0 mg/kg/injection, schedule: Q01DX009 (ip), vehicle: saline with Tween-80 97 % of control | dose: 200.0 mg/kg/injection, schedule: Q01DX009 (ip), vehicle: saline with Tween-80 98 % of control | dose: 400.0 mg/kg/injection, schedule: Q01DX009 (ip), vehicle: saline with Tween-80 114 % of control

Nc1ncnc2nc(-c3ccc(Cl)c(Cl)c3)[nH]c12
inactive: dose: 37.5 mg/kg/injection, schedule: Q01DX001 (ip), vehicle: saline with Tween-80 93 % of control | dose: 75.0 mg/kg/injection, schedule: Q01DX001 (ip), vehicle: saline with Tween-80 87 % of control | dose: 150.0 mg/kg/injection, schedule: Q01DX001 (ip), vehicle: saline with Tween-80 87 % of control

O=P(O)(O)c1ccc(N=Nc2ccc(P(=O)(O)O)cc2)cc1
inactive: [1] 94 % of control | [2] 107 % of control | [3] 97 % of control

C[N+]1(C2CCC3CCC2C3O)CCCCC1 (configuration not stated)
inactive: dose: 50.0 mg/kg/injection, schedule: Q01DX009 (ip), vehicle: saline 100 % of control | dose: 100.0 mg/kg/injection, schedule: Q01DX009 (ip), vehicle: saline 110 % of control | [1] 101 % of control | dose: 200.0 mg/kg/injection, schedule: Q01DX009 (ip), vehicle: saline 110 % of control | [2] 101 % of control

COc1ccc(C23OC2Oc2cc(OC4CCCCO4)ccc2C3=O)cc1 (configuration not stated)
inactive: dose: 50.0 mg/kg/injection, schedule: Q01DX001 (sc), vehicle: steriod suspending solution 103 % of control | dose: 100.0 mg/kg/injection, schedule: Q01DX001 (sc), vehicle: steriod suspending solution 108 % of control | dose: 200.0 mg/kg/injection, schedule: Q01DX001 (sc), vehicle: steriod suspending solution 106 % of control | dose: 400.0 mg/kg/injection, schedule: Q01DX001 (sc), vehicle: steriod suspending solution 103 % of control

C1CCC2C(C1)CCC1CCCCC12 (configuration not stated)
inactive: dose: 62.5 mg/kg/injection, schedule: Q01DX001 (ip), vehicle: carboxymethylcellulose (CMC) 100 % of control | dose: 125.0 mg/kg/injection, schedule: Q01DX001 (ip), vehicle: carboxymethylcellulose (CMC) 100 % of control | dose: 250.0 mg/kg/injection, schedule: Q01DX001 (ip), vehicle: carboxymethylcellulose (CMC) 96 % of control | dose: 500.0 mg/kg/injection, schedule: Q01DX001 (ip), vehicle: carboxymethylcellulose (CMC) 102 % of control

CCN(CC)C(=O)Nc1cc2c3c(c1)CCCN3CCC2
inactive: dose: 50.0 mg/kg/injection, schedule: Q04DX002 (ip), vehicle: saline with Tween-80 96 % of control | dose: 100.0 mg/kg/injection, schedule: Q04DX002 (ip), vehicle: saline with Tween-80 93 % of control | dose: 200.0 mg/kg/injection, schedule: Q04DX002 (ip), vehicle: saline with Tween-80 90 % of control | dose: 400.0 mg/kg/injection, schedule: Q04DX002 (ip), vehicle: saline with Tween-80 114 % of control

CS(=O)(=O)Oc1c(Br)cc(Br)c2cccnc12
inactive: dose: 100.0 mg/kg/injection, schedule: Q01DX001 (ip), vehicle: carboxymethylcellulose (CMC) 104 % of control | dose: 200.0 mg/kg/injection, schedule: Q01DX001 (ip), vehicle: carboxymethylcellulose (CMC) 98 % of control | dose: 400.0 mg/kg/injection, schedule: Q01DX001 (ip), vehicle: carboxymethylcellulose (CMC) 98 % of control
